91 compounds from a melting point compilation (Tetko et al.; mined from patent text by program, amines drawn as free bases though some values may be those of a salt) can be followed below.

`Cc1nn(C)c2c1N(C(=O)CN(C)C)c1ccccc1NC2=O` had a melting point of 178 to 179 °C.
`CC(C)Oc1ccc2nc(COc3ccc(CC4SC(=O)N(C(c5ccccc5)(c5ccccc5)c5ccccc5)C4=O)cc3)n(C)c2n1` (stereo unspecified) displayed a melting point of 90 to 100 °C.
Next, `O=C1CCC(O)(c2nc3ccccc3s2)C(Sc2ccccc2)(Sc2ccccc2)C1` (stereo unspecified): 150 to 151 °C.
Next, `NC(=O)COCC(N)=S`: 164 to 168 °C; `O=C(O)CCC(=O)c1ccc(SCCCBr)cc1`: 91 to 94 °C.
Turning to `C=CCC(=C)C(O)C(NC=O)C(=O)OC` (stereo unspecified), the melting point was 75 to 77 °C.
As to `COc1cccc(CCN2C(=O)c3ccccc3C2(O)c2ccncc2)c1` (stereo unspecified), the melting point stood at 190 °C.
On to `CC(C)(C)C(=O)Nc1ccc(-c2ccncc2)cc1`, for which the melting point was 274 to 279 °C.
Compound `CN1CC(CO)CC2(O)c3cccc4[nH]cc(c34)CC12` (stereo unspecified) gave a melting point of 175 to 179 °C.
Then `COC(=O)c1ccc(CN(C2CCCCC2C)S(=O)(=O)c2ccc(Cl)cc2)cc1` (stereo unspecified), with 93 to 95 °C; and `O=C(C#Cc1ccc(C(F)(F)F)cc1Cl)Nc1ccc2nc(N3CCCCC3)ccc2c1`, with 176 to 179 °C.
Compound `O=C(O)Cc1ccc(O)c(Cl)c1` came in with a melting point of 101 to 104 °C.
`COc1ccc(S(=O)(=O)Nc2nc(-c3cccc4ccccc34)cs2)cc1OC` gave a melting point of 132 to 133 °C.
Next, `Cc1nc(N)nc(OCc2ccccc2)c1[N+](=O)[O-]`: 159 to 160 °C.
Next, `O=C1c2ccc([N+](=O)[O-])c3c([N+](=O)[O-])c(Br)cc(c23)C(=O)N1O`: 233 to 234 °C; `CCCCOc1cc(/C=C/S(=O)(=O)NC(=O)OC(C)(C)C)n(Cc2ccc(Cl)cc2Cl)n1`: 152 to 153 °C; `COc1ccc(NC(=O)CCCn2nnnc2C)cc1`: 132 to 134 °C.
Regarding `Cc1cccc(-c2n[nH]cc2-c2ccc(F)c(-c3cn(CCO)cn3)c2)n1`, the melting point was 248 °C.
Then `CCCCCCn1c(=O)c2c(ncn2CCCCC(C)O)n(C)c1=O` (stereo unspecified), with 68 to 69 °C; and `CC(=O)c1cnccc1-c1c(-c2ccccc2)nn2ccccc12`, with 159 to 161 °C; and `COc1ccc(-c2cc(Nc3c(C)cc(C)cc3C)nc(C)n2)cc1OC`, with 168 to 170 °C.
Next, `CC(C)(C)OC(=O)C=Cc1ccc2ccccc2n1`: 96 to 97 °C.
The compound `COc1cc(N2CCCN(C[C@H](O)CO)CC2)ccc1Nc1ncc2ccc(-c3ccccc3N(C)S(C)(=O)=O)n2n1` had a melting point of 93 to 99 °C.
In turn, `CC1(C2CCCC2)Cc2cc(O)c(Cl)c(Cl)c2C1=O` (stereo unspecified) returned a melting point of 190 to 194 °C.
In turn, `COc1ccc(C(=N)c2ccc(Cl)cc2)c(O)c1` registered a melting point of 212 to 214 °C.
Then `NS(=O)(=O)CCCCCCl`, with 62 °C; and `CCC(CC)C(c1ccnn1-c1ccccc1)N(C)S(=O)(=O)c1ccc(Cl)s1` (stereo unspecified), with 126 to 128 °C.
As for `Cc1cccc(N2CC(c3cccc(-c4ccc(S(C)(=O)=O)cc4)c3)=CN2)n1`, the melting point fell in the range of 95 to 97 °C.
Then `O=C(Nc1ccc(C(F)(F)F)cc1)C1=NN(c2cccc(Cl)c2)C(c2ccccc2)CC1` (stereo unspecified), with 183 to 184 °C; and `CC1(C)CCCC(C)(C)N1Cc1ccc2cc(NC(=O)c3ccc(-c4ccc(F)cc4)cc3)ccc2c1`, with 238 to 241 °C; and `COC(=O)c1cc(C(=O)c2ncc3ccc(NC(=O)OC(C)(C)C)cn23)ccc1[N+](=O)[O-]`, with 182 °C.
Regarding `COC(=O)CCC/C=C/c1nn(-c2ccc(NC(C)=O)cc2)c2c1CCC2`, the melting point lay within 118 to 120 °C.
Next, `O=C(O)c1ccc(COc2ccc3cc(-c4ccc(-c5ccccc5)[nH]4)ccc3c2)c(C(=O)O)c1`: 289 to 291 °C; `CCSCC(=O)c1cc(C(C)(C)C)c(O)c(C(C)(C)C)c1`: 133 to 134 °C.
Then `CCOc1cccc(C(=O)N2CCc3cc(O)ccc3C2)c1`, with 150 to 151 °C; and `CC(=O)Nc1ccc(CC(=O)NCCc2ccc3[nH]cc(CC#N)c3c2)cc1`, with 188 to 189 °C.
Then `CC(C)(N)c1ccc(-c2nc(Nc3ccc(-n4cncn4)cc3)ncc2C#N)cc1`, with 208 to 209 °C; and `O=C(O)CCC(=O)c1ccc(CCNS(=O)(=O)CCc2ccc(Cl)cc2)cc1`, with 112 °C.
On to `CC(F)(F)CCc1ccccc1S(N)(=O)=O`, for which the melting point is 70 to 72 °C.
Then `CCc1ccc(C=CC(=O)O)cc1`, with 140 °C; and `NC1([C@@H]2CCN(c3ccc4c(=O)c(C(=O)O)cn(C5CC5)c4c3OC(F)F)C2)CC1`, with 206 to 208 °C; and `CCC1C(C)=NN=C(c2cc(OC)c(OC)c(OC)c2)c2cc(OC)c(OC)cc21` (stereo unspecified), with 152 to 155 °C.
Compound `CCc1cnc2c(c1)C(=O)N(C(C)(C(N)=O)C(C)C)C2=O` (stereo unspecified) came in with a melting point of 115 to 117 °C.
Then `O=C(NCc1ccc(Cl)cc1Cl)N1CCc2[nH]cnc2C1CCC1CCCCC1` (stereo unspecified), with 185 to 187 °C.
Compound `COC(=O)c1nc(-c2ccc(Cl)cc2)c(F)c(N)c1I` had a melting point of 114 to 115 °C.
Next, `C[C@H](CNC(=O)c1c(Cl)ccc2nc(N3CCC(C(=O)O)CC3)ccc12)c1ccccc1`: 150 to 153 °C; `CCCC(CCC)n1[nH]c(Cc2c(C)n(C(=O)c3ccc(Cl)cc3)c3ccc(OC)cc23)cc1=O`: 167 to 168 °C; `CCC(C=O)c1ccc(S(C)(=O)=O)cc1` (stereo unspecified): 202 to 204 °C.
Then `CCC1(CC)CC(c2ccc(OC)c(OC)c2)=NN(C2CCN(C(=O)c3ccccc3)CC2)C1=O`, with 160 to 161 °C; and `CC1(CN2CCN(Cc3ccccc3)C2=O)Cn2cc([N+](=O)[O-])nc2O1` (stereo unspecified), with 180 to 181 °C.
In the case of `CCOC(=O)c1cc2c(cn1)[nH]c1ccc(S(=O)(=O)N(C)C)cc12`, the melting point was in the range of 310 to 311 °C.
Next, `CCOC(=O)CN=C(c1ccccc1)c1cc(Cl)ccc1N`: 130 to 135 °C; `CCN(CC)C(=O)c1cc(C(C)(C)C)c(O)c(C(C)(C)C)c1`: 136 to 138 °C.
With `NCCCNc1ncc2ncnc(Nc3ccc(F)c(Cl)c3)c2n1`, the melting point was in the range of 177 to 179 °C.
The compound `CCOc1ccc(-n2c(N)cc(=O)nc2Nc2ccccc2)cc1` had a melting point of 114 to 118 °C.
Next, `COC(=O)c1ccc(Cl)cc1NC(=O)Cc1cccc(OC)c1`: 144 to 146 °C.
Next, `C[Si](C)(C)C#Cc1cccc2c1C1(c3ccccc3-c3ccccc31)c1ccccc1-2`: 205 to 206 °C.
In turn, `Oc1ccc2cc(Oc3c(Cl)cc(C(F)(F)F)cc3Cl)ccc2c1` gave a melting point of 158 °C.
`CCc1nc(CO)c(CO)[nH]1` showed a melting point of 173 to 174 °C.
Regarding `CN1CCN(c2cccc3c2C[C@H](NC(=O)c2ccc(C(=O)c4ccccc4)cc2)CC3)CC1`, the melting point lay within 194 to 195 °C.
Then `CCOc1cccc(-c2nc(=O)c3ccccc3s2)n1`, with 180 °C; and `Cc1ccc(S(=O)(=O)OCC2CCc3scnc3C2)cc1` (stereo unspecified), with 87 to 88 °C; and `O=C1Cc2cc(C(=O)O)ccc2N1`, with greater than 300 °C.
In turn, `COC1(OC)CCN(Cc2ccccc2)CC1O` (stereo unspecified) registered a melting point of 90.1 °C.
On to `COC(=O)COc1ccc(-c2c3ccccc3cc3sc4cc(OCC(=O)OC)ccc4c23)cc1`, for which the melting point was 152 to 154 °C.
Next, `CCc1oc2ccc(Cl)cc2c1C(=O)c1ccc(Cl)c(S(N)(=O)=O)c1`: 130 to 133 °C.
Compound `O=C(O)c1ccc(NCc2sc(Cl)cc2Cl)cc1` registered a melting point of 169 to 170 °C.
Take `Cc1oc(-c2ccco2)nc1COc1ccc(Cn2cc(CCC(=O)O)c(-c3ccc(C(F)(F)F)cc3)n2)cc1`: the melting point is 92 to 93 °C.
Then `CC(=O)NC(CSSc1ccccc1C(=O)Nc1ccc(S(N)(=O)=O)cc1)C(=O)O` (stereo unspecified), with 218 to 220 °C; and `O=C(CCC1C(=S)Nc2ccccc21)NCc1ccccc1` (stereo unspecified), with 114 °C; and `CC(=O)Nc1ccc2c(c1)CC1(OC1c1ccccc1)C2=O` (stereo unspecified), with 195 to 197 °C.
Then `COC(=O)c1cc(OC)c(CCNC(C)=O)c(OC)c1`, with 233 to 235 °C.
Then `CC(C(=O)O)c1ccc(O)c(N)c1` (stereo unspecified), with 162 °C; and `CC1=CC(C)(C)Cc2c1nc(C(C)C)c(CO)c2-c1ccc(F)cc1`, with 112 to 114 °C.
Compound `CCOC(=O)C(=Nc1ccc(OC)cc1)c1cccn1C` came in with a melting point of 83 to 85 °C.
Then `CC(C)c1ccc(C2(OC(=O)N(C)C)C(=O)c3ccccc3C2=O)c(O)c1`, with 114 to 118 °C.
Regarding `C=CCn1c(CSC#N)nc2ccccc2c1=O`, the melting point lay within 73 to 76 °C.
Take `Cn1nc(-c2ccc(Cl)cc2)c2c1-c1ccccc1C2`: the melting point was 176 °C.
On to `O=C(NC(=O)c1ccc(OCCn2ccnc2)cc1)c1ccccc1`, for which the melting point is 152 to 154 °C.
Then `COc1cc(Cl)ccc1CC(=O)O`, with 100 °C.
Take `Brc1cc2c(cc1Br)Sc1ccccc1S2`: the melting point fell in the range of 160 to 161 °C.
Then `O=C(NC1CC1)c1ccc(F)c(F)c1`, with 104 to 108 °C; and `Oc1cccnc1Oc1cccc(Br)c1`, with 107 to 108 °C; and `O=C(O)c1cc(-n2c(-c3ccccc3)cc3c2CCC3)ccc1O`, with 198 to 199 °C.
Then `CN1CCN(C(=O)c2cc(S(=O)(=O)NC3CCCCC3)ccc2N)CC1`, with 167 to 168 °C; and `CC(C)n1c(=O)c(C(=O)O)cc2ccccc21`, with 168 to 169 °C.
As to `Cc1ccc(S(=O)(=O)c2ccc(N3CCN(C)CC3)cc2N)cc1`, the melting point fell in the range of 148 to 151 °C.
`CCS(=O)(=O)N1C[C@H](C)N(C(=O)[C@@](C)(O)C(F)(F)F)C[C@H]1C`: the melting point was 142 to 144 °C.
Take `C#CCNC(=O)C(C#N)C(=O)C1CC1` (stereo unspecified): the melting point lay in the range of 128 to 129 °C.
`O=C(NCc1ccc(Cl)cc1)c1cnc2c(I)cc(CO)cc2c1O` came in with a melting point of 283 to 286 °C.
`Oc1cc2ccc(Cc3ccccc3)cc2cc1O` returned a melting point of 177 to 187 °C.

What is called melting point is the temperature of the solid-liquid transition.
